Measurements as given in ChEMBL document CHEMBL1201862, “PubChem BioAssay data set” (2004).
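Where inhibition never reached the appropriate level, the endpoint shown equals the highest concentration tested. Otherwise, values were interpolated linearly from a five-concentration, 48-hour dose response in 96-well plates. GI50: concentration for 50% inhibition of growth.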 The source made the active and inactive calls. Rule as the data show it: active = GI50 up to about 1.1 µM and inactive = higher.

What was measured:
Assay in all cases: inhibition of tumour cell growth, NCI panel, 48 h
A549 = system: A549
K562 = system: K562
SNB-75 = system: SNB-75
SF-295 = system: SF-295
HCC 2998 = system: HCC 2998
IGROV-1 = system: IGROV-1
SR = system: SR
SNB-19 = system: SNB-19
TK-10 = system: TK-10
LOX IMVI = system: LOX IMVI
Malme-3M = system: Malme-3M
DMS-114 = system: DMS-114
M14 = system: M14
DMS-273 = system: DMS-273
NCI-H522 = system: NCI-H522
OVCAR-8 = system: OVCAR-8
NCI-H23 = system: NCI-H23
SK-MEL-28 = system: SK-MEL-28
HL-60 = system: HL-60
OVCAR-5 = system: OVCAR-5
NCI-H460 = system: NCI-H460
OVCAR-3 = system: OVCAR-3
SK-MEL-2 = system: SK-MEL-2
HCT-15 = system: HCT-15
UO-31 = system: UO-31
HCT-116 = system: HCT-116
U-251 = system: U-251
SW-620 = system: SW-620
RXF 631 = system: RXF 631
SK-MEL-5 = system: SK-MEL-5
XF498 = system: XF498
NCI-H226 = system: NCI-H226
HOP-92 = system: HOP-92
SNB-78 = system: SNB-78
SN12C = system: SN12C
UACC-62 = system: UACC-62
SK-OV-3 = system: SK-OV-3
KM-20L2 = system: KM-20L2
OVCAR-4 = system: OVCAR-4
UACC-257 = system: UACC-257
CAKI-1 = system: CAKI-1
HT-29 = system: HT-29
EKVX = system: EKVX
COLO 205 = system: COLO 205
HOP-62 = system: HOP-62
MOLT-4 = system: MOLT-4
HOP-18 = system: HOP-18
M19-MEL = system: M19-MEL
ACHN = system: ACHN
DLD-1 = system: DLD-1
KM12 = system: KM12
LXFL 529 = system: LXFL 529
786-0 = system: 786-0
CCRF-CEM = system: CCRF-CEM
SF-539 = system: SF-539
RPMI-8226 = system: RPMI-8226
A498 = system: A498
SF-268 = system: SF-268
RXF 393 = system: RXF 393

## Cc1cccc(-c2cc(=O)c3cc(C)c(C)c(C(=O)O)c3o2)c1
A549
  GI50: > 100 µM (inactive)
K562
  GI50: > 100 µM (inactive)
SNB-75
  GI50: > 100 µM (inactive)
SF-295
  GI50: > 100 µM (inactive)
HCC 2998
  GI50: > 100 µM (inactive)
IGROV-1
  GI50: > 100 µM (inactive)
SR
  GI50: > 100 µM (inactive)
SNB-19
  GI50: > 100 µM (inactive)
TK-10
  GI50: > 100 µM (inactive)
LOX IMVI
  GI50: > 100 µM (inactive)
Malme-3M
  GI50: > 100 µM (inactive)
DMS-114
  GI50: > 100 µM (inactive)
M14
  GI50: > 100 µM (inactive)
DMS-273
  GI50: > 100 µM (inactive)
NCI-H522
  GI50: > 100 µM (inactive)
OVCAR-8
  GI50: > 100 µM (inactive)
NCI-H23
  GI50: > 100 µM (inactive)
SK-MEL-28
  GI50: > 100 µM (inactive)
HL-60
  GI50: > 100 µM (inactive)
OVCAR-5
  GI50: > 100 µM (inactive)
NCI-H460
  GI50: > 100 µM (inactive)
OVCAR-3
  GI50: > 100 µM (inactive)
SK-MEL-2
  GI50: > 100 µM (inactive)
HCT-15
  GI50: > 100 µM
UO-31
  GI50: > 100 µM (inactive)
HCT-116
  GI50: > 100 µM (inactive)
U-251
  GI50: > 100 µM (inactive)
SW-620
  GI50: > 100 µM (inactive)
RXF 631
  GI50: > 100 µM (inactive)
SK-MEL-5
  GI50: > 100 µM (inactive)
XF498
  GI50: > 100 µM (inactive)
NCI-H226
  GI50: > 100 µM (inactive)
HOP-92
  GI50: > 100 µM (inactive)
SNB-78
  GI50: > 100 µM (inactive)
SN12C
  GI50: > 100 µM (inactive)
UACC-62
  GI50: > 100 µM (inactive)
SK-OV-3
  GI50: > 100 µM (inactive)
KM-20L2
  GI50: > 100 µM (inactive)
OVCAR-4
  GI50: > 100 µM (inactive)
UACC-257
  GI50: > 100 µM (inactive)
CAKI-1
  GI50: > 100 µM (inactive)
HT-29
  GI50: > 100 µM (inactive)
EKVX
  GI50: > 100 µM (inactive)
COLO 205
  GI50: > 100 µM (inactive)
HOP-62
  GI50: > 100 µM (inactive)
MOLT-4
  GI50: > 100 µM (inactive)
HOP-18
  GI50: > 100 µM (inactive)
M19-MEL
  GI50: > 100 µM (inactive)
ACHN
  GI50: > 100 µM (inactive)
DLD-1
  GI50: > 100 µM (inactive)
KM12
  GI50: > 100 µM (inactive)
LXFL 529
  GI50: > 100 µM (inactive)
786-0
  GI50: > 100 µM (inactive)
CCRF-CEM
  GI50: > 100 µM (inactive)
SF-539
  GI50: > 100 µM (inactive)
RPMI-8226
  GI50: > 100 µM (inactive)

## N#CN1CC[C@@H]2CC3(CCC2C1)OCCO3 (stereo partly drawn)
A549
  GI50: > 100 µM (inactive)
K562
  GI50: > 100 µM (inactive)
SNB-75
  GI50: > 100 µM (inactive)
SF-295
  GI50: > 100 µM (inactive)
HCC 2998
  GI50: > 100 µM (inactive)
IGROV-1
  GI50: > 100 µM (inactive)
SR
  GI50: > 100 µM (inactive)
SNB-19
  GI50: > 100 µM (inactive)
TK-10
  GI50: > 100 µM (inactive)
Malme-3M
  GI50: > 100 µM (inactive)
DMS-114
  GI50: > 100 µM (inactive)
M14
  GI50: > 100 µM (inactive)
DMS-273
  GI50: > 100 µM (inactive)
NCI-H522
  GI50: < 0.01 µM (active)
OVCAR-8
  GI50: > 100 µM (inactive)
NCI-H23
  GI50: > 100 µM (inactive)
HL-60
  GI50: > 100 µM (inactive)
OVCAR-5
  GI50: > 100 µM (inactive)
NCI-H460
  GI50: > 100 µM (inactive)
OVCAR-3
  GI50: > 100 µM (inactive)
SK-MEL-2
  GI50: > 100 µM (inactive)
HCT-15
  GI50: > 100 µM
UO-31
  GI50: > 100 µM (inactive)
HCT-116
  GI50: > 100 µM (inactive)
U-251
  GI50: > 100 µM (inactive)
SW-620
  GI50: > 100 µM (inactive)
RXF 631
  GI50: > 100 µM (inactive)
SK-MEL-5
  GI50: > 100 µM (inactive)
A498
  GI50: > 100 µM (inactive)
XF498
  GI50: > 100 µM (inactive)
NCI-H226
  GI50: > 100 µM (inactive)
HOP-92
  GI50: > 100 µM (inactive)
SNB-78
  GI50: > 100 µM (inactive)
SN12C
  GI50: > 100 µM (inactive)
UACC-62
  GI50: > 100 µM (inactive)
SK-OV-3
  GI50: > 100 µM (inactive)
KM-20L2
  GI50: > 100 µM (inactive)
OVCAR-4
  GI50: > 100 µM (inactive)
UACC-257
  GI50: > 100 µM (inactive)
CAKI-1
  GI50: > 100 µM (inactive)
HT-29
  GI50: > 100 µM (inactive)
EKVX
  GI50: > 100 µM (inactive)
COLO 205
  GI50: > 100 µM (inactive)
HOP-62
  GI50: > 100 µM (inactive)
MOLT-4
  GI50: > 100 µM (inactive)
HOP-18
  GI50: > 100 µM (inactive)
M19-MEL
  GI50: > 100 µM (inactive)
ACHN
  GI50: > 100 µM (inactive)
DLD-1
  GI50: > 100 µM (inactive)
KM12
  GI50: > 100 µM (inactive)
LXFL 529
  GI50: > 100 µM (inactive)
SF-268
  GI50: > 100 µM (inactive)
786-0
  GI50: > 100 µM (inactive)
CCRF-CEM
  GI50: > 100 µM (inactive)
SF-539
  GI50: > 100 µM (inactive)
RPMI-8226
  GI50: > 100 µM (inactive)
RXF 393
  GI50: > 100 µM (inactive)
